Test results published in patent US20230414568A1, “PHARMACEUTICAL COMBINATION FOR MOOD DISORDERS” (INSTITUTO NACIONAL DE PSIQUIATRÍA "RAMÓN DE LA FUENTE MUÑIZ", priority 2018, published 2023).
Marks after values point to notes of the source that are not given here.

Experiments:
[1] = system: Swiss Webster mice; experiment: Forced swim test (FST) in mice; type: in vivo; conditions: for antidepressant-type effect, reduction of immobility time: acute single I.P. administration, ketamine 1.5 mg/kg, melatonin 4 and 16 mg/kg, alone or combined, vs control group
Description: (§1) Male mice of the “Swiss Webster” strain between 25 and 35 grams were used. All mice were placed in polyethylene boxes (8 mice per box) at a controlled temperature between 21-22° C., in a room with the dark light cycle reversed (12:12 hours, with artificial light from 10 PM to 10 A.M). The behavior evaluations of the mice were carried out between 10 AM and 3 PM. These mice were fed Purina® for rodents and water ad libitum.
A single intraperitoneal administration (I.P.) was performed in a volume of […] of body weight, as the following treatment scheme: […]
The forced swim test consists of two sessions. In the first session (pre-test), the animals are placed in a glass cylinder with the following dimensions: 20 cm in diameter by 30 cm in height. The glass cylinder is filled with water to a height of 15 cm, at 23-25° C. temperature. The mice are kept in the cylinder for 15 minutes and are naturally forced to swim. The second session takes place 24 hours after the first session and 30 minutes after administering the different pharmacological treatments. The mice are placed in the glass cylinder for 5 minutes and videotaped for further analysis. The immobility of mice in FST is defined as depressive-type behavior and is manifested by a minimal amount of movements made by the animal to stay afloat. The antidepressant effect of a drug is reflected in this test as a decrease in immobility time and an increase in swimming compared to control animals (administered with the vehicle).

[2] = system: Swiss Webster mice; experiment: Tail suspension test (TST) in mice; type: in vivo; conditions: N 8
[3] = system: olfactory neuronal precursors; experiment: Formation of spines in cloned olfactory neuronal precursors; type: cell-based, human; conditions: ketamine 10^−7 M
Description: (§2) Cloned neuronal precursors obtained by exfoliation of the nasal cavity of a healthy subject without neuropsychiatric disease at the time of sample collection were used. These were grown according to the following process: • a) Solution 1 containing the culture medium characterized by containing one or more amino acids, one or more mineral salts, one or more vitamins, one or more growth factors of natural origin, and one or more antibiotics; • b) Solution 2 containing one or more pH regulators, and one or more calcium chelating agents, whose function is to moisten the cells that will later be propagated; • c) Solution 3 containing one or more substances that break proteins and that allow the separation between the cells by dispersing them; • d) Solution 4 containing one or more substances that allow the cells to be fixed to a glass support; • e) Solution 5 of cryopreservation containing one or more cryoprotective agents of neuronal origin cells; • f) Solution 6 of differentiation containing the maintenance solution without natural origin growth factors, and a cyclic nucleotide compound that induces differentiation; • g) Solution 7 containing one or more identifiers of specific protein molecules of the neuronal structure such that they allow to distinguish the neuronal cells from patients with neuropsychiatric diseases from healthy subjects; and • h) Solution 8 containing one or more fluorescent and/or enzymatic markers to recognize the identifiers of solution 7; up to passage 5 at a temperature of 37° C. in a 5% CO^2 atmosphere. Cells in passage 5 were incubated with increasing concentrations of ketamine or melatonin or the combination of both according to the following administration schedules:
(§3) • i. Incubation of the neuronal precursors with a vehicle (0) and ketamine for 12 hours (1), 24 hours (2), 48 hours (3) and 72 hours (4). • ii. Incubation of neuronal precursors with 10^−7 molar ketamine for 48 hours followed by incubation for 6 hours with 10^−7 molar ketamine and melatonin concentrations ranging from 10^−11 molar (7), from 10^−9 molar (8), 10^−7 molar (9) and 10^−5 molar (10), this evaluation was incorporated in a treatment with vehicle (0), with 10^−7 molar melatonin (5) and 10^−7 molar ketamine (6). Said treatment is outlined in FIG. 1. • iii. […]
Once the cells were fixed, they were processed to stain them with specific markers that recognize the spines, which are made up of spinophilin and filamentous actin (FIG. 2A and 2B). […] The spines were counted in 10 fields chosen at random and normalized between the total cells number present in each field (Table 1). […]

[4] = system: olfactory neuronal precursors; experiment: Cell cluster formation of olfactory neuronal precursors; type: cell-based, human
Description: as §2, §3

[5] = system: Swiss Webster mice; experiment: Open field test (OFT) in mice; type: in vivo
Description: as §1
In order to discard nonspecific actions of any of the treatments on locomotor activity, all the treatments studied in the TST and in the FST were analyzed in the OFT. Motor activity was measured in an apparatus formed by an opaque plexiglass box (40×30×20 cm), divided into 12 equal squares ([…]). The animal was placed in a corner of the cage and its behavior was videotaped for a period of 5 minutes. An observer, who was blinded to drug treatments, recorded the total number of times the animal crossed a square during the test. A count was considered when the animal fully crossed from one plaza to the next. Any change in the number of counts is considered as an alteration in locomotor activity. The test box was carefully cleaned after each session. To avoid changes in the behavior of the animals after the first experiment, the mice were used only once per test type.
The following groups of mice were treated under a single administration schedule: with a vehicle (26), a sub-effective dose of ketamine 1.5 mg/Kg (27), 3 mg/Kg (28), 10 mg/Kg (29), 20 mg/Kg (30), 30 mg/Kg (31), plus no effective dose of melatonin and 30 minutes later they were subjected to TST.
Under the same single administration scheme; (24, 7 and 0.5 h) before starting the trial, two other independent groups were administered with melatonin 4 mg/kg (33) and 16 mg/kg (34) plus no effective dose of ketamine, with their respective control (32). In other groups, melatonin 4 mg/kg +ketamine 1.5 mg/kg (36) and melatonin 16 mg/kg+ketamine 1.5 mg/kg (37) were administered, with their respective control (35).
The following groups of mice were treated under a triple administration scheme: with a vehicle (38), three administrations of melatonin 4 mg/Kg (39), three administrations of melatonin 16 mg/Kg (40), three administrations of ketamine 1.5 mg/Kg (41), three administrations of melatonin 4 mg/Kg+one administration of ketamine 1.5 mg/Kg (42) and three administrations of melatonin 16 mg/Kg+one administration of ketamine 1.5 mg/Kg (43) and 30 minutes later they were subjected to TST.
Evaluating the effect of melatonin in combination with ketamine on the ambulatory activity of mice in the open field test (OFT) all results are expressed as the mean±SEM of 8-12 animals. Comparisons were made using a one-way ANOVA analysis, followed by the Bonferroni test: * p<0.05, ** p<0.01, *** p<0.001.

[6] = single administration, ketamine 1.5 mg/kg (group 27)
[7] = single administration, ketamine 3 mg/kg (group 28)
[8] = single administration, ketamine 10 mg/kg (group 29)
[9] = single administration, ketamine 20 mg/kg (group 30)
[10] = single administration, ketamine 30 mg/kg (group 31)
[11] = triple administration, ketamine 1.5 mg/kg (group 41)
[12] = single administration, melatonin 4 mg/kg (group 33)
[13] = single administration, melatonin 16 mg/kg (group 34)
[14] = triple administration, melatonin 4 mg/kg (group 39)
[15] = triple administration, melatonin 16 mg/kg (group 40)

CNCCC(Oc1ccc(C(F)(F)F)cc1)c1ccccc1 (centres unmarked) [Fluoxetine, fluoxetine]
Immobility time ([1]; fluoxetine 5 mg/kg I.P. (group 19)): 49.76 ± 4.65 s
Immobility time ([1]; fluoxetine 10 mg/kg I.P. (group 20)): 35.25 ± 3.88 s

CNC1(c2ccccc2Cl)CCCCC1=O (centres unmarked) [Ketamine, 2-(2-chlorophenyl)-2-(methylamino) cyclohexanone]
Count Number/5 min ± mean standard error ([2]; ketamine 1.5 mg/kg): 40.12 ± 3.23
Count Number/5 min ± mean standard error ([2]; ketamine 3 mg/kg): 45.25 ± 4.29
Count Number/5 min ± mean standard error ([2]; ketamine 10 mg/kg): 56.34 ± 4.36
Spines ([3]; incubation 12 h (group 1)): 10.25 ± 1.89%
Spines ([3]; incubation 24 h (group 2)): 22.65 ± 2.16%
Spines ([3]; incubation 48 h (group 3)): 45.31 ± 4.26%
Spines ([3]; incubation 72 h (group 4)): 45.31 ± 3.88%
cell cluster ([4]; ketamine 10^−7 M pre-treatment 48 h, then vehicle (group 6)): 7.12 ± 0.92%
cell cluster ([4]; two vehicle administrations + one administration of ketamine 10^−7 M (group 13)): 3.1 ± 1.0%
antidepressant-type effect, reduction of immobility time [1]: ineffective
ambulatory activity in OFT ([5]; highest doses of ketamine (10 30 mg/kg), did not reach statistical significance, F(3,31)=2.99, p=0.047): modified ambulatory activity
ambulatory activity in OFT ([5]; ketamine 1.5, 3.0, 10.0 and 20.0 mg/kg, F(2,23)=0.545, p=0.589): did not produce changes in the ambulatory activity
Count number/5 min [5, 6]: 40.12 ± 3.23
Stop number/5 min [5, 6]: 28.62 ± 3.15
Count number/5 min [5, 7]: 45.25 ± 4.29
Stop number/5 min [5, 7]: 28.25 ± 2.66
Count number/5 min [5, 8]: 56.62 ± 4.36**
Stop number/5 min [5, 8]: 45.25 ± 2.85**
Count number/5 min [5, 9]: 56.00 ± 3.62**
Stop number/5 min [5, 9]: 45.50 ± 3.70
Count number/5 min [5, 10]: 60.12 ± 1.60***
Stop number/5 min [5, 10]: 45.37 ± 1.71
Count number/5 min [5, 11]: 41.400 ± 3.97
Stop number/5 min [5, 11]: 28.000 ± 2.53

COc1ccc2[nH]cc(CCNC(C)=O)c2c1 [Melatonin, N-[2-(5-methoxy-1H-indol-3-yl)ethyl] acetamide]
Count Number/5 min ± mean standard error ([2]; melatonin 4 mg/kg): 41.125 ± 2.489
Count Number/5 min ± mean standard error ([2]; melatonin 16 mg/kg): 38.500 ± 3.746
cell cluster ([4]; triple administration: three administrations of melatonin 10^−7 M (group 12)): 2.9 ± 0.9%
cell cluster ([4]; vehicle pre-treatment, then melatonin 10^−7 M (group 5)): 7.61 ± 0.59%
antidepressant-type effect, reduction of immobility time [1]: ineffective
Immobility time ([1]; melatonin 4 mg/kg I.P. (group 21)): 41.21 ± 7.29 s
Immobility time ([1]; melatonin 16 mg/kg I.P. (group 22)): 17.38 ± 2.51 s
Count number/5 min [5, 12]: 41.12 ± 2.48
Stop number/5 min [5, 12]: 25.37 ± 2.18
Count number/5 min [5, 13]: 38.50 ± 3.74
Stop number/5 min [5, 13]: 25.12 ± 2.36
Count number/5 min [5, 14]: 47.200 ± 5.20
Stop number/5 min [5, 14]: 29.111 ± 2.16
Count number/5 min [5, 15]: 42.625 ± 5.97
Stop number/5 min [5, 15]: 26.375 ± 4.60
